Data on three substances can be found in EP0134242B1, “[…] ANTIGEN” (NEW YORK UNIVERSITY, priority 1983, dated 1984).

For assay [1], the system named is 2G3, 5H8, and 8B8 antibodies. As to the kind of experiment: Inhibition immunoassays with peptide analogs, results in words for several antibodies together. To be noted: for inhibition of the reaction of antibodies 2G3, 5H8 and 8B8 with the antigen (in words): P. knowlesi CS protein as antigen. The format is binding, mouse. How it is done: (§1) Competitive inhibition of the antigen-antibody reaction by the thus synthesized peptides was measured by the following radioimmunoassay. P.knowlesi sporozoite CS protein was used as the antigen. • a) Preparation of antigen: 3,000 purified P. knowlesi sporozoites (Vanderberg et al., Military Medicine 134:1183, 1969) in 50 µl of phosphate buffered saline (PBS) containing protease inhibitors, were delivered to the bottom of polystyrene (Falcon 3911 plate, B-D and Co., Oxnard, Calif.) microtiter plates, which were sealed with parafilm and frozen at -70°C for at least ten minutes. The plates were then allowed to defrost slowly at room temperature. This procedure was repeated six times. Then the plates were incubated at 4°C overnight, and at 56°C for five minutes. The P. knowlesi extract was then removed from the wells and these were washed three times with PBS containing 1% bovine serum albumin (BSA) and 0.1% NaN₃. The wells were then filled with PBS-BSA-NaN₃ and incubated for a few hours at room temperature. • b) Preparation of peptides and two-site radio immunoassay to determine the inhibitory activity of the analogs; • (1) All synthetic peptides were dissolved in PBS at a concentration of 10 mM and subsequently diluted serially in PBS-1% BSA/0.1%NaN₃. Twenty-five µl of serial dilutions of each peptide were added to the wells coated with antigen. Control wells received only the diluent. Then, 25 µl of the ¹²⁵I-labelled monoclonal antibody (about 5-10ng, 10⁵cpm) were added to the wells. The microtiter plates were incubated at 4°C for 18 hours, washed 5 times with PBS-BSA-NaN₃ and then the wells were counted for well-bound antibody.
The series of shorter analogs and one peptide overlapping two epitopes (7-6) shown in Table VII was used to analyze the specificity of the 2G3, 5H8, and 8B8 antibodies using the inhibition immunoassays described in Examples 10 and 11. […] On a molar basis, their activities were similar, although in some instances the larger peptides appeared to be slightly better inhibitors. […]

Assay [2] has as its system monoclonal antibody 2G3. As to the kind of experiment: Two-site immunoradiometric assay with monoclonal antibody 2G3 and synthetic peptides. The format is binding, mouse. How it is done: Wells of microtiter plates (Falcon 3911) were incubated overnight at 4°C with 50 µl of a 10 µg/ml solution in PBS of the monoclonal 2G3 anti-CS protein of P.knowlesi. The wells were washed with PBS and then incubated for 2 hours at room temperature, with PBS-Tween 20 (0.05% (w/v), and then for 3 additional hours with PBS-BSA (1% (w/v). The synthetic peptides were diluted serially in PBS-BSA-Tween 20, and 30 µl aliquots of the dilutions were delivered to the bottom of individual wells. The plates were incubated overnight in the refrigerator, washed with PBS-BSA-Tween 20, and incubated with 5.0 µl (10 ng) of ¹²⁵I-labeled monoclonal antibody 2G3 diluted in PBS-BSA-Tween 20 (about 100,000 cpm). Controls consisted of plates coated with a non-relevant monoclonal antibody of the same isotype as 2G3. Specific counts were found only in wells incubated with the 24-MER and they were proportional to the dose of peptide added to the well.

The test system of assay [3] is antibody 8E11. As to the kind of experiment: Inhibition by synthetic peptides of binding of radiolabelled monoclonal antibody to CS protein (radioimmunoassay). The arrangement: species or system mouse. The following applies: at a concentration of 10⁻²M. How it is done:
as §1, with “The wells were then filled with PBS-BSA-NaN₃ and incubated for a few hours at room temperature. • b) Preparation of peptides and two-site radio immunoassay to determine the inhibitory activity of the analogs; • (1) All synthetic peptides were dissolved in PBS at a concentration of 10 mM and subsequently diluted serially in PBS-1% BSA/0.1%NaN₃. Twenty-five µl of serial dilutions of each peptide were added to the wells coated with antigen. Control wells received only the diluent. Then, 25 µl of the ¹²⁵I-labelled monoclonal antibody (about 5-10ng, 10⁵cpm) were added to the wells.” left out, “antibody. […]” for “antibody.”

Assay [4] deals with monoclonal antibody (2G3). The assay can be described thus: Inhibition by 12-MER of the binding of P. knowlesi CS protein to monoclonal antibody 2G3 (two-site assay). The arrangement: species or system mouse. The procedure: To distinguish between these possibilities, an assay was conducted to determine the ability of the 12-MER to inhibit the interaction between the CS proteins of P.knowlesi and the monoclonal antibody 2G3. The inhibition assay was performed as follows: Wells of microtiter plates were coated with the monoclonal antibody 2G3 washed with Tween-20, saturated with BSA as described supra. In one series of tubes, the 12-MER was serially diluted in PBS-BSA-Tween 20. In a second series of tubes, an extract of P.knowlesi sporozoites (prepared as described by Cochrane, et al, supra) was serially diluted in PBS-BSA-Tween 20. Aliquots of each dilution of sporozoites were mixed with equal volumes of all dilutions of 12-MER. 30 µl of these mixtures were then added to the bottom of the 2G3-coated wells. As positive and negative controls, 30 µl aliquots of sporozoite dilutions mixed with PBS-BSA-Tween 20 were added to other wells which had been precoated with 2G3 or with a non-relevant monoclonal antibody. After overnight incubation in the refrigerator, the wells were washed and 50 µl (10 ug) of ¹²⁵I-labeled 2G3 diluted in PBS-BSA-Tween 20 were added. Following an additional incubation at room temperature for 1 hour, the wells were washed and counted in a gamma counter. The results are shown in Table V. The 12-MER inhibited, in a dose-dependent fashion, the interaction of the P.knowlesi CS protein with 2G3.

With “Ala₇-Asn₈-Ala₉-Gly₁₀-Gln₁₁-Pro₁₂-Gln₁-Ala₂-Gln₃-Gly₄-Asp₅-Gly₆”, the “activity in the inhibition assays of the foregoing Examples (in words)” value in assay [1] (assayed as in the foregoing Examples (antibodies 2G3, 5H8, 8B8, 8E11)) was “inactive”.
“Asp₅-Gly-Ala-Asn-Ala-Gly-Gln-Pro₁₂ [5 - 12]”: the “inhibition of the reaction of antibodies 2G3, 5H8 and 8B8 with the antigen (in words)” value in assay [1] is reported as “strongly inhibitory”.
“H₂N-GlnAlaGlnGlyAspGlyAla-AsnAlaGlyGlnPro-COOH (H-QAQGDGANAGQP-OH) [Peptide 12-MER]”: the “Amount of radiolabeled 2G3 (cpm) bound in wells” value in assay [2] (peptide 5. µg/ml incubated with the solid-phase antibody 2G3) is given as 40 cpm; in assay [2] (peptide 50. µg/ml incubated with the solid-phase antibody 2G3), 103 cpm; in assay [2] (peptide 500. µg/ml incubated with the solid-phase antibody 2G3), 157 cpm; in assay [2] (peptide .5 µg/ml incubated with the solid-phase antibody 2G3) it was 0 cpm. Further, in assay [3], the “inhibitory effect on binding of radiolabelled 8E11 to the CS protein” value is on record as “no appreciable inhibitory effect”. Also, the “Amount of 2G3 bound (cpm) in the presence of the 12-MER inhibitor” value in assay [4] (12-MER 0.08 mg/ml, P. knowlesi extract 10³ sporozoites/ml (no inhibitor: 156)) is 72 cpm; in assay [4] (12-MER 0.08 mg/ml, P. knowlesi extract 10⁴ sporozoites/ml (no inhibitor: 1353)), 102 cpm; in assay [4] (12-MER 0.08 mg/ml, P. knowlesi extract 10⁵ sporozoites/ml (no inhibitor: 4390)) it was 1221 cpm; in assay [4] (12-MER 0.08 mg/ml, P. knowlesi extract 10⁶ sporozoites/ml (no inhibitor: 5582)), 3893 cpm; in assay [4] (12-MER 0.6 mg/ml, P. knowlesi extract 10³ sporozoites/ml (no inhibitor: 156)) it was 0 cpm; in assay [4] (12-MER 0.6 mg/ml, P. knowlesi extract 10⁴ sporozoites/ml (no inhibitor: 1353)), 70 cpm. The “Amount of 2G3 bound (cpm) in the presence of the 12-MER inhibitor” value stood at 781 cpm in assay [4] (12-MER 0.6 mg/ml, P. knowlesi extract 10⁵ sporozoites/ml (no inhibitor: 4390)); 3018 cpm in assay [4] (12-MER 0.6 mg/ml, P. knowlesi extract 10⁶ sporozoites/ml (no inhibitor: 5582)); 37 cpm in assay [4] (12-MER 5.0 mg/ml, P. knowlesi extract 10³ sporozoites/ml (no inhibitor: 156)); 3 cpm in assay [4] (12-MER 5.0 mg/ml, P. knowlesi extract 10⁴ sporozoites/ml (no inhibitor: 1353)); 361 cpm in assay [4] (12-MER 5.0 mg/ml, P. knowlesi extract 10⁵ sporozoites/ml (no inhibitor: 4390)); 1099 cpm in assay [4] (12-MER 5.0 mg/ml, P. knowlesi extract 10⁶ sporozoites/ml (no inhibitor: 5582)). Further, in assay [1], the “inhibition of the reaction of antibodies 2G3, 5H8 and 8B8 with the antigen (in words)” value is recorded as “strongly inhibitory”.
